Literature values as cited in article PMC4323000 (Oncotarget, 2015).

Tests used:
ABCG2 = details: ref per compound in Table 2; cited from earlier work
[1] = human; GF120918 oral; ref [13],[21],[35],[45]–[48] (GF120918), [26],[50],[51] (Telatinib); cited from earlier work
[2] = test system: ABCG2-overexpressing tumors; details: cited from earlier work
[3] = oral; ref per compound in Table 2; cited from earlier work

CNC(=O)c1cc(COc2nnc(Nc3ccc(Cl)cc3)c3ccoc23)ccn1 [Telatinib]
In vitro ABCG2 Specificity (ABCG2): No
In vivo Toxicity, Chronic [1]: >1 500 mg (human)
In vivo Impact on Tumor growth ([2]; ref per compound in Table 2): Yes
effect on ABCG2-overexpressing tumors ([2]; telatinib 15 mg/kg in combination with doxorubicin […], xenografted nude mouse model): significantly decrease the growth rate and tumor size
In vivo Toxicity, Acute [3]: >15 mg/kg oral
